Source: the supplement of paper PMC10307832

How the values were obtained:
Assay in all cases: relative viability (nuclei count vs DMSO), 5 days (fraction); higher = more cells survive
Alisertib + Trametinib = compound: COc1cc(Nc2ncc3c(n2)-c2ccc(Cl)cc2C(c2c(F)cccc2OC)=NC3)ccc1C(=O)O [Alisertib] + CC(=O)Nc1cccc(-n2c(=O)n(C3CC3)c(=O)c3c(Nc4ccc(I)cc4F)n(C)c(=O)c(C)c32)c1 [Trametinib] (partner 0.02 µM)
Summary of the method: (§1)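 Lung cancer cell lines were pin-tool dosed in 1536-well plates on the day after seeding, with either a lone drug or a fixed anchor-drug dose plus five library-drug doses (not always all listed) in √10 steps. Nuclei were counted on 4× images after 5 days. Relative viability is the ratio of treated-well to vehicle-well nuclei counts, with each value a median of duplicate plates.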

Alisertib + OSI-027 = compound: COc1cc(Nc2ncc3c(n2)-c2ccc(Cl)cc2C(c2c(F)cccc2OC)=NC3)ccc1C(=O)O [Alisertib] + COc1cccc2cc(-c3nc([C@H]4CC[C@H](C(=O)O)CC4)n4ncnc(N)c34)[nH]c12 [OSI-027] (partner 0.5 µM)
Summary of the method: as §1

Alisertib + Lapatinib = compound: COc1cc(Nc2ncc3c(n2)-c2ccc(Cl)cc2C(c2c(F)cccc2OC)=NC3)ccc1C(=O)O [Alisertib] + CS(=O)(=O)CCNCc1ccc(-c2ccc3ncnc(Nc4ccc(OCc5cccc(F)c5)c(Cl)c4)c3c2)o1 [Lapatinib] (partner 2 µM)
Summary of the method: as §1

Alisertib + Linsitinib = compound: COc1cc(Nc2ncc3c(n2)-c2ccc(Cl)cc2C(c2c(F)cccc2OC)=NC3)ccc1C(=O)O [Alisertib] + C[C@]1(O)C[C@@H](c2nc(-c3ccc4ccc(-c5ccccc5)nc4c3)c3c(N)nccn32)C1 [Linsitinib] (partner 1 µM)
Summary of the method: as §1

| Cell Line | relative viability (Alisertib + Trametinib; first compound 0.005 µM) | relative viability (Alisertib + Trametinib; first compound 0.01581 µM) | relative viability (Alisertib + Trametinib; first compound 0.05 µM) | relative viability (Alisertib + Trametinib; first compound 0.1581 µM) | relative viability (Alisertib + Trametinib; first compound 0.5 µM) | relative viability (Alisertib + OSI-027; first compound 0.005 µM) | relative viability (Alisertib + OSI-027; first compound 0.01581 µM) | relative viability (Alisertib + OSI-027; first compound 0.05 µM) | relative viability (Alisertib + OSI-027; first compound 0.1581 µM) | relative viability (Alisertib + OSI-027; first compound 0.5 µM) | relative viability (Alisertib + Lapatinib; first compound 0.005 µM) | relative viability (Alisertib + Lapatinib; first compound 0.01581 µM) | relative viability (Alisertib + Lapatinib; first compound 0.05 µM) | relative viability (Alisertib + Lapatinib; first compound 0.1581 µM) | relative viability (Alisertib + Lapatinib; first compound 0.5 µM) | relative viability (Alisertib + Linsitinib; first compound 0.005 µM) | relative viability (Alisertib + Linsitinib; first compound 0.01581 µM) | relative viability (Alisertib + Linsitinib; first compound 0.05 µM) | relative viability (Alisertib + Linsitinib; first compound 0.1581 µM) | relative viability (Alisertib + Linsitinib; first compound 0.5 µM) |
| --- | --- | --- | --- | --- | --- | --- | --- | --- | --- | --- | --- | --- | --- | --- | --- | --- | --- | --- | --- | --- |
| NCI-H2405 | 0.614 | 0.559 | 0.575 | 0.418 | 0.217 | 0.63 | 0.666 | 0.592 | 0.321 | 0.231 | 1.03 | 0.873 | 0.932 | 0.295 | 0.272 | 0.922 | 0.814 | 0.818 | 0.384 | 0.266 |
| NCI-H3122 | 0.238 | 0.214 | 0.198 | 0.176 | 0.131 | 0.86 | 0.754 | 0.599 | 0.336 | 0.149 | 1.01 | 0.999 | 0.899 | 0.433 | 0.307 | 1.02 | 0.905 | 0.571 | 0.467 | 0.245 |
| PC-3 [JPC-3] | 0.669 | 0.649 | 0.591 | 0.526 | 0.493 | 0.784 | 0.764 | 0.703 | 0.407 | 0.306 | 0.453 | 0.441 | 0.441 | 0.374 | 0.329 | 0.967 | 0.908 | 0.864 | 0.559 | 0.447 |
| PC-14 | 0.757 | 0.56 | 0.385 | 0.234 | 0.0465 | 0.659 | 0.8 | 0.393 | 0.0786 | 0.049 | 0.402 | 0.31 | 0.329 | 0.184 | 0.099 | 0.91 | 0.848 | 0.774 | 0.222 | 0.117 |
| RERF-LC-KJ | 0.872 | 0.819 | 0.357 | 0.301 | 0.198 | 0.539 | 0.468 | 0.354 | 0.181 | 0.191 | 0.844 | 0.713 | 0.673 | 0.318 | 0.201 | 0.92 | 0.789 | 0.581 | 0.207 | 0.227 |
| SK-LU-1 | 0.484 | 0.457 | 0.203 | 0.275 | 0.279 | 0.369 | 0.233 | 0.182 | 0.18 | 0.163 | 0.79 | 0.569 | 0.296 | 0.265 | 0.237 | 1.07 | 0.924 | 0.361 | 0.324 | 0.24 |
| SK-MES-1 | 0.525 | 0.556 | 0.603 | 0.468 | 0.183 | 0.563 | 0.572 | 0.276 | 0.21 | 0.117 | 0.468 | 0.508 | 0.411 | 0.263 | 0.219 | 0.953 | 0.963 | 0.725 | 0.279 | 0.16 |
| SW 1573 | 0.512 | 0.533 | 0.121 | 0.119 | 0.104 | 0.556 | 0.5 | 0.284 | 0.148 | 0.102 | 1.15 | 0.939 | 0.552 | 0.345 | 0.203 | 0.856 | 0.824 | 0.649 | 0.176 | 0.143 |
| UMC-11 | 0.344 | 0.246 | 0.15 | 0.148 | 0.185 | 0.328 | 0.219 | 0.165 | 0.175 | 0.189 | 0.438 | 0.29 | 0.162 | 0.163 | 0.158 | 0.755 | 0.495 | 0.168 | 0.148 | 0.158 |
